Experiment: Crystal form stability on storage (no transformation to other forms)
Assay type: physicochemical
Conditions: 40° C./75% RH; samples packaged in inner double-layered LDPE bags and an outer aluminum foil composite film bag

Substance: trisodium AHU-377 and Valsartan co-crystal hydrate Form II
- Crystalline form stability (transformation to other forms): will not transform to other forms

— US10442775B2, “Preparation method for eutectic hydrate crystal form II of AHU-377 and diovan trisodium salt” (CRYSTAL PHARMATECH CO., LTD., priority 2015, dated 2019)
